Assay results published in patent publication US8076159B2, “Ligand-regulable transactivation systems, methods of use thereof, methods of detecting estrogen receptor ligands, and methods of differentiating estrogen receptor ligand agonists and antagonists” (The Board of Trustees of the Leland Stanford Junior …, priority 2006, dated 2011).

Target: T1, GAL4-ER (LBD)-VP16 fusion protein (Homo sapiens, UniProt P03372, G400V)
T1 construct: was used to replace the ER of 281-595; expressed in transfected cells; host or cells: 293T cells (A1, A2, A3, A5)
T1 sequence (P03372 281-595 G400V): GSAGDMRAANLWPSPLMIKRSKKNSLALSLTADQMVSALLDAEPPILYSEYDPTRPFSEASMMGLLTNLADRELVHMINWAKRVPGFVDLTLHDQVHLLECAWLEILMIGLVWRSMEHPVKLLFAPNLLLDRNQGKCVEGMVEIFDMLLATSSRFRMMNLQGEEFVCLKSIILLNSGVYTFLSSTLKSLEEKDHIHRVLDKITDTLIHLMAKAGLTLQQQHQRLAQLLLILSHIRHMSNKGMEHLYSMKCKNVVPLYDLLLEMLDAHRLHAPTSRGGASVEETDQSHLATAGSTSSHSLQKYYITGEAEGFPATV
Assay: ER-ligand induced transactivation system (GAL4-ER(LBD)-VP16 activator + GAL4-E4-firefly luciferase reporter) in transiently co-transfected 293T cells
Assay type: cell-based
Description: Cell Transfection and Luciferase Assay. […] Volumes of Lipofectamine were as recommended by the manufacturer.

C[C@]12CC[C@@H]3c4ccc(O)cc4C[C@@H](CCCCCCCCC[S+]([O-])CCCC(F)(F)C(F)(F)F)[C@H]3[C@@H]1CC[C@@H]2O (some centres unmarked) [ICI]
fold luciferase signal in comparison to carrier control (1 μM ligand): 300±80 fold

N.N.[Cl][Pt][Cl] [non-ligand anticancer drug, cisplatinum]
transactivation signal relative to carrier control (in words) (1 μM): not significantly different from the cells exposed to carrier control
